Assay results as given in PubChem BioAssay (NCI).
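Step 1: Grow cells in 96-well plates. Step 2: Expose to compound for 48 hours at 5 concentrations. Step 3: Interpolate endpoints linearly; if unreached, use highest concentration. At the TGI there is no net growth.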

test system: MOLT-4 leukemia; experiment: NCI anticancer screen, dose series, 48 h

SMILES | TGI [µM]
NC12CC3C4CC5(N)CC3C(C1)C(C5)C4C2 | > 100
C[n+]1c2ccccc2c2/c(=C\C#N)c3ccccc3n21 | 57.7
COc1cc(/C=N/NC(=O)c2c(Cl)c(Cl)c(Cl)c(Cl)c2-c2nc3ccccc3[nH]2)ccc1O | > 100

test system: NCI-H226 lung; experiment: NCI anticancer screen, dose series, 48 h

SMILES | TGI [µM]
COc1ccc(N=NC(=O)NC(CC(C)C)C(=O)NC(CC(C)C)C(=O)O)cc1 (stereo unspecified) | > 100
NC12CC3C4CC5(N)CC3C(C1)C(C5)C4C2 | > 100
C[n+]1c2ccccc2c2/c(=C\C#N)c3ccccc3n21 | 17.6
COc1cc(/C=N/NC(=O)c2c(Cl)c(Cl)c(Cl)c(Cl)c2-c2nc3ccccc3[nH]2)ccc1O | 87.6

test system: NCI-H23 lung; experiment: NCI anticancer screen, dose series, 48 h

SMILES | TGI [µM]
COc1ccc(N=NC(=O)NC(CC(C)C)C(=O)NC(CC(C)C)C(=O)O)cc1 (stereo unspecified) | > 100
CC(C)=NNC1=NC(C)(C)P(=O)(NNc2ncccn2)S1 (stereo unspecified) | > 100
NC12CC3C4CC5(N)CC3C(C1)C(C5)C4C2 | > 100
C[n+]1c2ccccc2c2/c(=C\C#N)c3ccccc3n21 | 77.1
COc1cc(/C=N/NC(=O)c2c(Cl)c(Cl)c(Cl)c(Cl)c2-c2nc3ccccc3[nH]2)ccc1O | 55.3

test system: NCI-H460 lung; experiment: NCI anticancer screen, dose series, 48 h

SMILES | TGI [µM]
COc1ccc(N=NC(=O)NC(CC(C)C)C(=O)NC(CC(C)C)C(=O)O)cc1 (stereo unspecified) | > 100
CC(C)=NNC1=NC(C)(C)P(=O)(NNc2ncccn2)S1 (stereo unspecified) | > 100
NC12CC3C4CC5(N)CC3C(C1)C(C5)C4C2 | > 100
C[n+]1c2ccccc2c2/c(=C\C#N)c3ccccc3n21 | 22.8
COc1cc(/C=N/NC(=O)c2c(Cl)c(Cl)c(Cl)c(Cl)c2-c2nc3ccccc3[nH]2)ccc1O | 57

test system: NCI-H522 lung; experiment: NCI anticancer screen, dose series, 48 h

SMILES | TGI [µM]
COc1ccc(N=NC(=O)NC(CC(C)C)C(=O)NC(CC(C)C)C(=O)O)cc1 (stereo unspecified) | > 100
CC(C)=NNC1=NC(C)(C)P(=O)(NNc2ncccn2)S1 (stereo unspecified) | > 100
NC12CC3C4CC5(N)CC3C(C1)C(C5)C4C2 | > 100
COc1cc(/C=N/NC(=O)c2c(Cl)c(Cl)c(Cl)c(Cl)c2-c2nc3ccccc3[nH]2)ccc1O | > 100

test system: NCI/ADR-RES ovarian; experiment: NCI anticancer screen, dose series, 48 h

SMILES | TGI [µM]
COc1ccc(N=NC(=O)NC(CC(C)C)C(=O)NC(CC(C)C)C(=O)O)cc1 (stereo unspecified) | > 100
NC12CC3C4CC5(N)CC3C(C1)C(C5)C4C2 | > 100
C[n+]1c2ccccc2c2/c(=C\C#N)c3ccccc3n21 | > 100
COc1cc(/C=N/NC(=O)c2c(Cl)c(Cl)c(Cl)c(Cl)c2-c2nc3ccccc3[nH]2)ccc1O | > 100

test system: OVCAR-3 ovarian; experiment: NCI anticancer screen, dose series, 48 h

SMILES | TGI [µM]
COc1ccc(N=NC(=O)NC(CC(C)C)C(=O)NC(CC(C)C)C(=O)O)cc1 (stereo unspecified) | > 100
CC(C)=NNC1=NC(C)(C)P(=O)(NNc2ncccn2)S1 (stereo unspecified) | > 100
NC12CC3C4CC5(N)CC3C(C1)C(C5)C4C2 | > 100
C[n+]1c2ccccc2c2/c(=C\C#N)c3ccccc3n21 | 33.1
COc1cc(/C=N/NC(=O)c2c(Cl)c(Cl)c(Cl)c(Cl)c2-c2nc3ccccc3[nH]2)ccc1O | > 100

test system: OVCAR-4 ovarian; experiment: NCI anticancer screen, dose series, 48 h

SMILES | TGI [µM]
COc1ccc(N=NC(=O)NC(CC(C)C)C(=O)NC(CC(C)C)C(=O)O)cc1 (stereo unspecified) | > 100
CC(C)=NNC1=NC(C)(C)P(=O)(NNc2ncccn2)S1 (stereo unspecified) | > 100
NC12CC3C4CC5(N)CC3C(C1)C(C5)C4C2 | > 100
C[n+]1c2ccccc2c2/c(=C\C#N)c3ccccc3n21 | 11.4

test system: OVCAR-5 ovarian; experiment: NCI anticancer screen, dose series, 48 h

SMILES | TGI [µM]
COc1ccc(N=NC(=O)NC(CC(C)C)C(=O)NC(CC(C)C)C(=O)O)cc1 (stereo unspecified) | > 100
CC(C)=NNC1=NC(C)(C)P(=O)(NNc2ncccn2)S1 (stereo unspecified) | > 100
NC12CC3C4CC5(N)CC3C(C1)C(C5)C4C2 | > 100
C[n+]1c2ccccc2c2/c(=C\C#N)c3ccccc3n21 | 26.1
COc1cc(/C=N/NC(=O)c2c(Cl)c(Cl)c(Cl)c(Cl)c2-c2nc3ccccc3[nH]2)ccc1O | 86.7

test system: OVCAR-8 ovarian; experiment: NCI anticancer screen, dose series, 48 h

SMILES | TGI [µM]
COc1ccc(N=NC(=O)NC(CC(C)C)C(=O)NC(CC(C)C)C(=O)O)cc1 (stereo unspecified) | > 100
CC(C)=NNC1=NC(C)(C)P(=O)(NNc2ncccn2)S1 (stereo unspecified) | > 100
NC12CC3C4CC5(N)CC3C(C1)C(C5)C4C2 | > 100
C[n+]1c2ccccc2c2/c(=C\C#N)c3ccccc3n21 | 15.9
COc1cc(/C=N/NC(=O)c2c(Cl)c(Cl)c(Cl)c(Cl)c2-c2nc3ccccc3[nH]2)ccc1O | > 100

test system: PC-3 prostate; experiment: NCI anticancer screen, dose series, 48 h

SMILES | TGI [µM]
COc1ccc(N=NC(=O)NC(CC(C)C)C(=O)NC(CC(C)C)C(=O)O)cc1 (stereo unspecified) | > 100
CC(C)=NNC1=NC(C)(C)P(=O)(NNc2ncccn2)S1 (stereo unspecified) | > 100
NC12CC3C4CC5(N)CC3C(C1)C(C5)C4C2 | > 100
COc1cc(/C=N/NC(=O)c2c(Cl)c(Cl)c(Cl)c(Cl)c2-c2nc3ccccc3[nH]2)ccc1O | > 100

test system: RPMI-8226 leukemia; experiment: NCI anticancer screen, dose series, 48 h

SMILES | TGI [µM]
COc1ccc(N=NC(=O)NC(CC(C)C)C(=O)NC(CC(C)C)C(=O)O)cc1 (stereo unspecified) | > 100
C[n+]1c2ccccc2c2/c(=C\C#N)c3ccccc3n21 | 16.9

test system: RXF 393 renal; experiment: NCI anticancer screen, dose series, 48 h

SMILES | TGI [µM]
COc1ccc(N=NC(=O)NC(CC(C)C)C(=O)NC(CC(C)C)C(=O)O)cc1 (stereo unspecified) | > 100
CC(C)=NNC1=NC(C)(C)P(=O)(NNc2ncccn2)S1 (stereo unspecified) | > 100
NC12CC3C4CC5(N)CC3C(C1)C(C5)C4C2 | > 100
C[n+]1c2ccccc2c2/c(=C\C#N)c3ccccc3n21 | 21.9
COc1cc(/C=N/NC(=O)c2c(Cl)c(Cl)c(Cl)c(Cl)c2-c2nc3ccccc3[nH]2)ccc1O | 46.4

test system: SF-268 CNS; experiment: NCI anticancer screen, dose series, 48 h

SMILES | TGI [µM]
COc1ccc(N=NC(=O)NC(CC(C)C)C(=O)NC(CC(C)C)C(=O)O)cc1 (stereo unspecified) | > 100
CC(C)=NNC1=NC(C)(C)P(=O)(NNc2ncccn2)S1 (stereo unspecified) | > 100
NC12CC3C4CC5(N)CC3C(C1)C(C5)C4C2 | > 100
C[n+]1c2ccccc2c2/c(=C\C#N)c3ccccc3n21 | 29.3
COc1cc(/C=N/NC(=O)c2c(Cl)c(Cl)c(Cl)c(Cl)c2-c2nc3ccccc3[nH]2)ccc1O | > 100

test system: SF-295 CNS; experiment: NCI anticancer screen, dose series, 48 h

SMILES | TGI [µM]
COc1ccc(N=NC(=O)NC(CC(C)C)C(=O)NC(CC(C)C)C(=O)O)cc1 (stereo unspecified) | > 100
CC(C)=NNC1=NC(C)(C)P(=O)(NNc2ncccn2)S1 (stereo unspecified) | > 100
NC12CC3C4CC5(N)CC3C(C1)C(C5)C4C2 | > 100
C[n+]1c2ccccc2c2/c(=C\C#N)c3ccccc3n21 | 19.2
COc1cc(/C=N/NC(=O)c2c(Cl)c(Cl)c(Cl)c(Cl)c2-c2nc3ccccc3[nH]2)ccc1O | > 100

test system: SF-539 CNS; experiment: NCI anticancer screen, dose series, 48 h

SMILES | TGI [µM]
COc1ccc(N=NC(=O)NC(CC(C)C)C(=O)NC(CC(C)C)C(=O)O)cc1 (stereo unspecified) | 57.6
